Here are results for 18 compounds from the supplement of paper PMC4862054.

What all share (details): 72 h
For assay [1], the system named is MDA-MB-231. The protocol: (§1)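 Drug sensitivity and resistance testing (DSRT) of breast cancer cell lines in 384-well plates, 5 concentrations in 10-fold dilutions over a compound-specific 10,000-fold range. After 72 h, cytotoxicity was read by CellTox Green fluorescence and viability by CellTiter-Glo luminescence (multiplexed), normalised to DMSO and benzethonium chloride controls. EC50 is the inflection point of the fitted dose-response curve (bottom asymptote free, so it can be relative for partial curves) and is censored at the highest tested concentration. Rows with DSS 0 (no meaningful response) were excluded.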

The next assay relates to CAL-51. The protocol:
as §1

The test system of the next assay is MDA-MB-453. The essentials: (§2)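 The reported EC50 was fitted from percent-inhibition dose-response curves and censored at the highest concentration. Breast cancer cell lines (20 µl suspension) were added to 384-well plates containing compound in 5 µl medium and incubated 72 h, and viability was read with 2.5 µl CellTiter-Blue over 2 h at 37 °C at 560/590 nm. Each plate was normalised to vehicle and a positive kill control and checked by Z'-factor, and rows with zero drug sensitivity score were dropped.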

A further assay relates to CAL-85-1. In short, it runs like this: as §2
A further assay deals with HDQ-P1. In short, it runs like this: as §2
A further assay relates to HCC1937. In short, it runs like this:
as §2

The next assay deals with BT-549. The essentials: as §2
In assay [2] the test system is MDA-MB-231. In short, it runs like this: as §2
This is another data set of the same source.

A further assay has as its system MDA-MB-436. The essentials: as §2
For another assay, the system named is BT-474. The essentials: as §2
Another assay relates to MFM-223. The essentials: as §2
For another assay, the system named is SK-BR-3. In short, it runs like this:
as §2

In the next assay the test system is CAL-120. In short, it runs like this:
as §2

Another assay relates to Hs578T. The essentials: as §2
A further assay deals with MDA-MB-468. The essentials:
as §2

For the compound `CCn1c(-c2nonc2N)nc2cnc(Oc3cccc(NC(=O)c4ccc(OCCN5CCOCC5)cc4)c3)cc21`, the figures for the “EC50, CellTox Green” value with MDA-MB-231 [1] and in the assay on CAL-51 were 2950 nM and 48.1 nM, respectively.

`Cc1cc(Nc2cc(CN3CCOCC3)c3nc(C)c(Cc4ccc(Cl)cc4F)n3n2)n[nH]1`: the “EC50, CellTiter-Blue viability” value with MDA-MB-453 came out at 851 nM; with CAL-85-1, 2650 nM; in the assay on HDQ-P1, 930 nM; in the assay on HCC1937, 3820 nM; with BT-549, 2370 nM; with MDA-MB-231 [2], 1750 nM. In addition, the “EC50, CellTiter-Blue viability” value with MDA-MB-436 was determined as 1080 nM; in the assay on BT-474, 2920 nM; with MFM-223, 83.5 nM; with SK-BR-3, 3180 nM; with CAL-120 it was 877 nM; in the assay with Hs578T it was 2080 nM. Also, the “EC50, CellTiter-Blue viability” value in the assay on MDA-MB-468 is 1150 nM.

Regarding `N#Cc1ccc(COC[C@H]2O[C@@H](n3c(NCc4ccc(Cl)c(Cl)c4)nc4c(N)ncnc43)[C@H](O)[C@@H]2O)cc1`, the “EC50, CellTiter-Blue viability” value in the assay with HCC1937 is 619 nM; in the assay with BT-549, 5190 nM; in the assay with MDA-MB-231 [2], 2870 nM; in the assay on MDA-MB-436, 1390 nM; with SK-BR-3 it was 6100 nM; in the assay on MDA-MB-468, 6910 nM.

In the case of `COc1cc(O)c2c(c1)/C=C/C[C@H](O)[C@H](O)C(=O)/C=C\C[C@H](C)OC2=O` [(5Z)-7-Oxozeaenol], the “EC50, CellTox Green” value in the assay on MDA-MB-231 [1] stood at 864 nM; with CAL-51, 9350 nM.

For the compound `COc1cc(OC2CCN(C)CC2)ccc1Nc1ncc2c(n1)n(C1CCCC1)c(=O)n2C` [AZ 3146], the “EC50, CellTiter-Blue viability” value in the assay on MDA-MB-453 is 6400 nM; in the assay on CAL-85-1, 3240 nM; in the assay with MDA-MB-231 [2], 8030 nM; in the assay with SK-BR-3, 1050 nM; in the assay with CAL-120 it was more than 10000 nM. In addition, in the assay with CAL-51, the “EC50, CellTox Green” value amounted to 768 nM.

On to `CN(C)c1nc(N(C)C)nc(N(C)C)n1` [Altretamine], for which the “EC50, CellTiter-Blue viability” value was 6880 nM in the assay on MDA-MB-453 and 9540 nM in the assay on CAL-85-1.

Consider `COC(=O)c1ccc2c(c1)NC(=O)/C2=C(\Nc1ccc(N(C)C(=O)CN2CCN(C)CC2)cc1)c1ccccc1` [BIBF 1120], for which the “EC50, CellTiter-Blue viability” value was 3180 nM in the assay with MDA-MB-453; 6440 nM with CAL-85-1; 5930 nM with HDQ-P1; 5430 nM in the assay on BT-549; 4160 nM in the assay with MDA-MB-231 [2]; 9110 nM with MDA-MB-436. Besides, the “EC50, CellTiter-Blue viability” value is 1850 nM with BT-474; 555 nM in the assay with MFM-223; 7750 nM with SK-BR-3; 3640 nM with CAL-120; 7050 nM in the assay on Hs578T; 5610 nM in the assay on MDA-MB-468.

On to `Nc1cc(C(F)(F)F)c(-c2cc(N3CCOCC3)nc(N3CCOCC3)n2)cn1` [BKM-120], for which the “EC50, CellTiter-Blue viability” value is 532 nM in the assay on MDA-MB-453; 1310 nM in the assay on CAL-85-1; 1260 nM in the assay on HDQ-P1; 2090 nM with HCC1937; 1570 nM in the assay with BT-549; 1910 nM with MDA-MB-231 [2]. The “EC50, CellTiter-Blue viability” value in the assay on MDA-MB-436 is 4190 nM; in the assay with BT-474, 1180 nM; in the assay on MFM-223 it was 1360 nM; in the assay on SK-BR-3, 257 nM; with CAL-120, 887 nM; with Hs578T it was 3010 nM. Further, the “EC50, CellTiter-Blue viability” value in the assay on MDA-MB-468 was 2330 nM.

In the case of `Nc1cc(C(F)(F)F)c(-c2cc(N3CCOCC3)nc(N3CCOCC3)n2)cn1` [Buparlisib], the “EC50, CellTox Green” value was 3580 nM in the assay on MDA-MB-231 [1] and 2900 nM in the assay on CAL-51.

As for `O=P1(N(CCCl)CCCl)NCCCO1` (stereo not given) [Cyclophosphamide], the “EC50, CellTiter-Blue viability” value with MDA-MB-436 was more than 40000 nM.

`C=C1C[C@@H]2[C@H](CC[C@]3(C)C(=O)CC[C@@H]23)[C@@]2(C)C=CC(=O)C=C12` [Exemestane]: the “EC50, CellTiter-Blue viability” value in the assay with MDA-MB-453 amounted to 916 nM.

In the case of `CCOC(=O)CCNc1cc(N2CCc3ccccc3CC2)nc(-c2ccccn2)n1` [GSK-J4], the “EC50, CellTox Green” value with MDA-MB-231 [1] was 11300 nM; with CAL-51, 9960 nM.

`Cc1cc(Nc2cc(CN3CCOCC3)c3nc(C)c(Cc4ccc(Cl)cc4F)n3n2)n[nH]1` [Gandotinib]: the “EC50, CellTox Green” value in the assay with CAL-51 came to 1390 nM.

For the compound `COc1cc2ncnc(Nc3ccc(F)c(Cl)c3)c2cc1OCCCN1CCOCC1` [Gefitinib], the “EC50, CellTiter-Blue viability” value was 5030 nM in the assay with MDA-MB-453; 3330 nM in the assay with HDQ-P1; more than 10000 nM in the assay with MDA-MB-231 [2]; 1000 nM in the assay on BT-474; 1580 nM with SK-BR-3; more than 10000 nM in the assay on CAL-120. The entries for the “EC50, CellTiter-Blue viability” value with Hs578T and in the assay on MDA-MB-468 were 1060 nM and 808 nM, respectively.

With `NC(=O)c1ccc(I)c([N+](=O)[O-])c1` [Iniparib], in the assay on CAL-120, the “EC50, CellTiter-Blue viability” value amounted to 3290 nM.

For `CCc1c2c(nc3ccc(OC(=O)N4CCC(N5CCCCC5)CC4)cc13)-c1cc3c(c(=O)n1C2)COC(=O)[C@]3(O)CC` [Irinotecan], the “EC50, CellTiter-Blue viability” value is 4750 nM in the assay with MDA-MB-453; 3510 nM in the assay on CAL-85-1; more than 10000 nM with HDQ-P1; 961 nM in the assay on HCC1937; 4110 nM in the assay on BT-549; 8350 nM in the assay with MDA-MB-231 [2]. The “EC50, CellTiter-Blue viability” value with MDA-MB-436 amounted to 1010 nM; with MFM-223, 9110 nM; with SK-BR-3, 3740 nM; with CAL-120, 1110 nM; with MDA-MB-468, 1430 nM. In addition, the “EC50, CellTox Green” value in the assay with CAL-51 turned out to be 1220 nM.

As for `Cc1ccc(NC(=O)c2ccc(CN3CCN(C)CC3)cc2)cc1Nc1nc(-c2cccnc2)cs1` [Masitinib], the figures for the “EC50, CellTiter-Blue viability” value with MDA-MB-453, in the assay on MDA-MB-436 and with SK-BR-3 were 4580 nM, more than 10000 nM and 6500 nM, respectively. Also, the “EC50, CellTox Green” value with MDA-MB-231 [1] was 3220 nM.

Consider `COC(=O)c1ccc2c(c1)NC(=O)/C2=C(\Nc1ccc(N(C)C(=O)CN2CCN(C)CC2)cc1)c1ccccc1` [Nintedanib], for which the figures for the “EC50, CellTox Green” value in the assay on MDA-MB-231 [1] and with CAL-51 were 2190 nM and 2950 nM, respectively.
